Data on three compounds can be found in patent US10420786B2, “Compositions for use in cardioplegia comprising esmolol and adenosine” (AOP ORPHAN IP AG, priority 2009, dated 2019).

Read-outs that look alike come from different tables or passages of the source.

The subject of data set [1] is Langendorff perfused rat heart. As to the kind of experiment: Reversibility of esmolol: treatment for 10 minutes then washout without ischaemia. As to the method:
All the following experiments performed in a Langendorff perfused rat heart.
The first study is to determine the reversibility of esmolol at different concentrations after treatment with esmolol for 10 minutes then washout without ischaemia and LVDP was measured 9 minutes after starting the treatment and 3 minutes and 15 minutes after washing out the drug. The following doses were studied 0.03, 0.1, 0.3, 1, 3 mM. (n=5 each group)
It is therefore decided that esmolol concentration between 0.3 and 1 mM offers reasonable arresting effect with good reversibility profile.

Another data set relates to heart. As to the kind of experiment: Arrest by esmolol on its own (applicant's finding). The following applies: esmolol 0.75 mmol/L on its own.
The conditions of data set [2]: pH 7.0; cited from earlier work.
For data set [3] the following is noted: cited from earlier work.
In data set [4] the test system is Langendorff perfused rat hearts. The following applies: cited from earlier work.

Consider `COC(=O)CCc1ccc(OCC(O)CNC(C)C)cc1.Cl` (racemic) [Esmolol, (±)-Methyl p-[2-hydroxy-3-(isopropylamino)propoxy] hydrocinnamate hydrochloride], for which, in data set [1] (0.3 mM compared with 1 mM esmolol), the “reversibility (LVDP recovery) profile after washout” value is “better reversibility (LVDP recovery) profile”. The “esmolol concentration required to induce arrest” value in data set [1] (esmolol alone, doses 0.03, 0.1, 0.3, 1, 3 mM) is 1 mM. For the same compound, in the data set with heart, the “induction of effective arrest” value was “not sufficient to induce effective arrest”. Moreover, the “partition coefficient (octanol/water)” value in data set [2] was 0.42. In data set [3], the solubility in alcohol entry is listed as “freely soluble” and the solubility in water result was “very soluble”. Besides, the reversibility of arrest entry in data set [4] (esmolol 0.75 mmol/L) is given as “easily reversible”. Also, the reversibility of arrest entry in data set [4] (esmolol 1.5 mmol/L) is “slowly reversible with poor recovery”. Also, in data set [4] (in-vitro studies), the “esmolol concentration that can cause cardiac arrest” value is reported as “higher than 1 mmol/L”.

Consider `Nc1ncnc2c1ncn2[C@@H]1O[C@H](CO)[C@@H](O)[C@H]1O` [Adenosine, (2R,3R,4S,5R)-2-(6-amino-9H-purin-9-yl)-5-(hydroxymethyl)oxolane-3,4-diol], for which, in data set [3], the solubility in alcohol entry is listed as “practically insoluble” and the solubility in water result is recorded as “soluble”.

On to `CC(C)NCC(O)COc1cccc2ccccc12` (stereo not drawn) [propranolol], for which, in data set [2], the “partition coefficient (octanol/water)” value was 17.0.
